Test results: patent US8202987B2, “Method of obtaining conformational polymorph of sucrose” (National Central University, priority 2007, dated 2012)

Assay type: physicochemical
Method: Then an anti-solvent method is used at 60° C. to add methanol into the saturated sucrose solution for obtaining the new sucrose through re-crystallization. The new sucrose obtained has a melting point at 150° C., which is lower then 190° C. for the original sucrose. […] Therefore, the present invention contributes to sugar industry, drug industry and food industry.
Conclusively, a novel conformational polymorph of sucrose is obtained according to the present invention.

Structure (SMILES) | solubility relative to the original sucrose | stability relative to the original sucrose | solubility
OC[C@H]1O[C@@](CO)(O[C@H]2O[C@H](CO)[C@@H](O)[C@H](O)[C@H]2O)[C@@H](O)[C@@H]1O [new sucrose, sucrose] | lower solubility than the original sucrose | higher stability than the original sucrose | 
OC[C@H]1O[C@@](CO)(O[C@H]2O[C@H](CO)[C@@H](O)[C@H](O)[C@H]2O)[C@@H](O)[C@@H]1O [sucrose] |  |  | 2873 milligrams sucrose per milliliter water
